Results published in ChEMBL document CHEMBL1201862, “PubChem BioAssay data set” (2004).
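Grown in 96-well plates, cells were treated for 48 hours with each compound at five concentrations. Insufficient inhibition: endpoint recorded as highest concentration tested. GI50 marks 50% less growth.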 Active and inactive are the calls of the source. Rule as the data show it: active = GI50 up to about 1.1 µM and inactive = higher.

Experiments:
Assay in all cases: inhibition of tumour cell growth, NCI panel, 48 h
786-0 = system: 786-0
A498 = system: A498
A549 = system: A549
ACHN = system: ACHN
BT-549 = system: BT-549
CAKI-1 = system: CAKI-1
CCRF-CEM = system: CCRF-CEM
COLO 205 = system: COLO 205
DU-145 = system: DU-145
EKVX = system: EKVX
HCC 2998 = system: HCC 2998
HCT-116 = system: HCT-116
HCT-15 = system: HCT-15
HL-60 = system: HL-60
HOP-62 = system: HOP-62
HOP-92 = system: HOP-92
HT-29 = system: HT-29
Hs-578T = system: Hs-578T
IGROV-1 = system: IGROV-1
K562 = system: K562
KM12 = system: KM12
LOX IMVI = system: LOX IMVI
M14 = system: M14
MCF7 = system: MCF7
MDA-MB-231 = system: MDA-MB-231
MDA-MB-435 = system: MDA-MB-435
MDA-N = system: MDA-N
MOLT-4 = system: MOLT-4
Malme-3M = system: Malme-3M
NCI-H226 = system: NCI-H226
NCI-H23 = system: NCI-H23
NCI-H460 = system: NCI-H460
NCI-H522 = system: NCI-H522
NCI/ADR-RES = system: NCI/ADR-RES
OVCAR-3 = system: OVCAR-3
OVCAR-4 = system: OVCAR-4
OVCAR-5 = system: OVCAR-5
OVCAR-8 = system: OVCAR-8
PC-3 = system: PC-3
RPMI-8226 = system: RPMI-8226
RXF 393 = system: RXF 393
SF-268 = system: SF-268
SF-295 = system: SF-295
SF-539 = system: SF-539
SK-MEL-28 = system: SK-MEL-28
SK-MEL-2 = system: SK-MEL-2
SK-MEL-5 = system: SK-MEL-5
SK-OV-3 = system: SK-OV-3
SN12C = system: SN12C
SNB-19 = system: SNB-19
SNB-75 = system: SNB-75
SR = system: SR
SW-620 = system: SW-620
T47D = system: T47D
TK-10 = system: TK-10
U-251 = system: U-251
UACC-257 = system: UACC-257
UACC-62 = system: UACC-62
UO-31 = system: UO-31
DLD-1 = system: DLD-1
DMS-114 = system: DMS-114
DMS-273 = system: DMS-273
KM-20L2 = system: KM-20L2
LXFL 529 = system: LXFL 529
M19-MEL = system: M19-MEL
SNB-78 = system: SNB-78

How did the GI50 (786-0) turn out when `O=C(N/N=C\c1ccc([N+](=O)[O-])cc1)Nc1cccc2ccccc12` was run?
The GI50 was 7.1 µM (inactive).

And the GI50 (A498)?
The GI50 was 14 µM (inactive).

What about the GI50 (A549) of the same compound?
The GI50 was > 49.9 µM (inactive).

What about the GI50 (ACHN) of the same compound?
Its GI50 is 27.5 µM (inactive).

What about the GI50 (BT-549) of the same compound?
The GI50 was 4.25 µM (inactive).

And the GI50 (CAKI-1)?
Its GI50 is 15.3 µM (inactive).

And the GI50 (CCRF-CEM)?
The GI50 was > 100 µM (inactive).

What about the GI50 (COLO 205) of the same compound?
Its GI50 is > 100 µM (inactive).

What about the GI50 (DU-145) of the same compound?
The GI50 was 24.9 µM (inactive).

And the GI50 (EKVX)?
Its GI50 is 29.1 µM (inactive).

What about the GI50 (HCC 2998) of the same compound?
Its GI50 is 24.1 µM (inactive).

What about the GI50 (HCT-116) of the same compound?
The GI50 was 28.5 µM (inactive).

And the GI50 (HCT-15)?
Its GI50 is greater than 50.5 µM.

And the GI50 (HL-60)?
The GI50 was > 31.6 µM (inactive).

What about the GI50 (HOP-62) of the same compound?
Its GI50 is 5.93 µM (inactive).

What about the GI50 (HOP-92) of the same compound?
The GI50 was 6.15 µM (inactive).

And the GI50 (HT-29)?
The GI50 was > 100 µM (inactive).

And the GI50 (Hs-578T)?
Its GI50 is 3.99 µM (inactive).

What about the GI50 (IGROV-1) of the same compound?
The GI50 was > 63.2 µM (inactive).

And the GI50 (K562)?
The GI50 was > 100 µM (inactive).

And the GI50 (KM12)?
Its GI50 is > 29.7 µM (inactive).

And the GI50 (LOX IMVI)?
Its GI50 is 22.5 µM (inactive).

And the GI50 (M14)?
Its GI50 is 58.9 µM (inactive).

What about the GI50 (MCF7) of the same compound?
The GI50 was > 43.7 µM (inactive).

What about the GI50 (MDA-MB-231) of the same compound?
The GI50 was 14.1 µM (inactive).

And the GI50 (MDA-MB-435)?
The GI50 was > 100 µM (inactive).

And the GI50 (MDA-N)?
Its GI50 is > 100 µM (inactive).

And the GI50 (MOLT-4)?
Its GI50 is > 100 µM (inactive).

What about the GI50 (Malme-3M) of the same compound?
Its GI50 is 27.7 µM (inactive).

And the GI50 (NCI-H226)?
The GI50 was 17.7 µM (inactive).

And the GI50 (NCI-H23)?
The GI50 was 18.8 µM (inactive).

What about the GI50 (NCI-H460) of the same compound?
Its GI50 is > 37.3 µM (inactive).

What about the GI50 (NCI-H522) of the same compound?
The GI50 was 20.4 µM (inactive).

What about the GI50 (NCI/ADR-RES) of the same compound?
Its GI50 is 19.1 µM (inactive).

And the GI50 (OVCAR-3)?
Its GI50 is > 37.8 µM (inactive).

What about the GI50 (OVCAR-4) of the same compound?
The GI50 was > 25.9 µM (inactive).

And the GI50 (OVCAR-5)?
Its GI50 is > 100 µM (inactive).

And the GI50 (OVCAR-8)?
The GI50 was 6.03 µM (inactive).

What about the GI50 (PC-3) of the same compound?
The GI50 was 23 µM (inactive).

What about the GI50 (RPMI-8226) of the same compound?
The GI50 was > 100 µM (inactive).

And the GI50 (RXF 393)?
The GI50 was 11 µM (inactive).

What about the GI50 (SF-268) of the same compound?
The GI50 was 4.88 µM (inactive).

What about the GI50 (SF-295) of the same compound?
The GI50 was 7.28 µM (inactive).

What about the GI50 (SF-539) of the same compound?
Its GI50 is 10.7 µM (inactive).

And the GI50 (SK-MEL-28)?
The GI50 was > 100 µM (inactive).

What about the GI50 (SK-MEL-2) of the same compound?
Its GI50 is 5.55 µM (inactive).

And the GI50 (SK-MEL-5)?
Its GI50 is 31.3 µM (inactive).

What about the GI50 (SK-OV-3) of the same compound?
The GI50 was 4.5 µM (inactive).

And the GI50 (SN12C)?
The GI50 was 48.9 µM (inactive).

What about the GI50 (SNB-19) of the same compound?
The GI50 was 5.07 µM (inactive).

And the GI50 (SNB-75)?
Its GI50 is 3.23 µM (inactive).

What about the GI50 (SR) of the same compound?
The GI50 was > 55.1 µM (inactive).

What about the GI50 (SW-620) of the same compound?
The GI50 was > 100 µM (inactive).

And the GI50 (T47D)?
Its GI50 is > 23.1 µM (inactive).

And the GI50 (TK-10)?
The GI50 was 14.5 µM (inactive).

And the GI50 (U-251)?
The GI50 was 4.79 µM (inactive).

What about the GI50 (UACC-257) of the same compound?
The GI50 was > 79.3 µM (inactive).

What about the GI50 (UACC-62) of the same compound?
The GI50 was 13.2 µM (inactive).

And the GI50 (UO-31)?
Its GI50 is 24.5 µM (inactive).

How did the GI50 (786-0) turn out when `CSc1ccc2c(cc1=O)C(NC(=O)c1ccc(OC(C)=O)cc1)CCc1cc(O)c(O)c(O)c1-2` (centres undefined) was run?
The GI50 was 31 µM (inactive).

What about the GI50 (A498) of the same compound?
The GI50 was 57 µM (inactive).

And the GI50 (A549)?
Its GI50 is 33.9 µM (inactive).

What about the GI50 (ACHN) of the same compound?
The GI50 was 66.8 µM (inactive).

And the GI50 (CCRF-CEM)?
The GI50 was 3.43 µM (inactive).

And the GI50 (COLO 205)?
Its GI50 is 16.9 µM (inactive).

And the GI50 (DLD-1)?
The GI50 was 17.8 µM (inactive).

What about the GI50 (DMS-114) of the same compound?
Its GI50 is 19.8 µM (inactive).

What about the GI50 (DMS-273) of the same compound?
Its GI50 is 22.5 µM (inactive).

What about the GI50 (EKVX) of the same compound?
Its GI50 is 20.5 µM (inactive).

And the GI50 (HCC 2998)?
Its GI50 is 74.1 µM (inactive).

What about the GI50 (HCT-116) of the same compound?
Its GI50 is 17.3 µM (inactive).

What about the GI50 (HCT-15) of the same compound?
Its GI50 is 18.8 µM.

What about the GI50 (HL-60) of the same compound?
The GI50 was 3.31 µM (inactive).

What about the GI50 (HOP-62) of the same compound?
The GI50 was 26.9 µM (inactive).

And the GI50 (HT-29)?
Its GI50 is 19.6 µM (inactive).

What about the GI50 (K562) of the same compound?
The GI50 was 1.95 µM (inactive).

And the GI50 (KM-20L2)?
Its GI50 is 37.5 µM (inactive).

And the GI50 (KM12)?
The GI50 was 32 µM (inactive).

And the GI50 (LXFL 529)?
Its GI50 is 17.3 µM (inactive).

What about the GI50 (M14) of the same compound?
The GI50 was 16.7 µM (inactive).

And the GI50 (M19-MEL)?
Its GI50 is 12.8 µM (inactive).

And the GI50 (MOLT-4)?
The GI50 was 5.11 µM (inactive).

And the GI50 (Malme-3M)?
The GI50 was 48.9 µM (inactive).

What about the GI50 (NCI-H226) of the same compound?
The GI50 was 20.9 µM (inactive).

What about the GI50 (NCI-H23) of the same compound?
The GI50 was 25.3 µM (inactive).

And the GI50 (NCI-H460)?
Its GI50 is 23.2 µM (inactive).

What about the GI50 (NCI-H522) of the same compound?
Its GI50 is 12.8 µM (inactive).

What about the GI50 (OVCAR-3) of the same compound?
The GI50 was 20.8 µM (inactive).

And the GI50 (OVCAR-4)?
The GI50 was 9.02 µM (inactive).

And the GI50 (OVCAR-5)?
The GI50 was 25.1 µM (inactive).

What about the GI50 (OVCAR-8) of the same compound?
The GI50 was 25.1 µM (inactive).

And the GI50 (SF-268)?
Its GI50 is 42.1 µM (inactive).

What about the GI50 (SF-295) of the same compound?
The GI50 was 19.1 µM (inactive).

And the GI50 (SF-539)?
The GI50 was 19.1 µM (inactive).

What about the GI50 (SK-MEL-28) of the same compound?
The GI50 was 61.7 µM (inactive).

And the GI50 (SK-MEL-2)?
Its GI50 is 16.2 µM (inactive).

And the GI50 (SK-MEL-5)?
The GI50 was 16 µM (inactive).

What about the GI50 (SK-OV-3) of the same compound?
Its GI50 is 38.4 µM (inactive).

What about the GI50 (SN12C) of the same compound?
The GI50 was 16.3 µM (inactive).

What about the GI50 (SNB-19) of the same compound?
Its GI50 is 35.2 µM (inactive).

What about the GI50 (SNB-75) of the same compound?
The GI50 was 20 µM (inactive).

What about the GI50 (SNB-78) of the same compound?
The GI50 was 30.8 µM (inactive).

And the GI50 (SR)?
The GI50 was 7.94 µM (inactive).

And the GI50 (SW-620)?
Its GI50 is 13.1 µM (inactive).

What about the GI50 (TK-10) of the same compound?
Its GI50 is 91.2 µM (inactive).

And the GI50 (U-251)?
The GI50 was 20.4 µM (inactive).

What about the GI50 (UACC-257) of the same compound?
Its GI50 is 19.5 µM (inactive).

And the GI50 (UACC-62)?
Its GI50 is 18.5 µM (inactive).

And the GI50 (UO-31)?
Its GI50 is 35.6 µM (inactive).
